Measured values from patent US10160785B2, “Antimicrobial peptides and their use for the treatment of topical infections” (priority 2015, dated 2018).

How the values were obtained:
[1] = tested on: P. aeruginosa (Liberec); experiment: Synergistic effect of peptides with antibiotics, FIC index; assay type: cell-based, Pseudomonas aeruginosa; details: FIC <0.5 synergism, 0.5-2 additive, >2 antagonism, averages of three experiments; for FIC indexes (fractional inhibitory concentration) Combination with RIF against P. aeruginosa: peptide combined with rifampicin; for FIC indexes (fractional inhibitory concentration) Combination with TET against P. aeruginosa: peptide combined with tetracycline
Method: (§1) MICs values of various combinations of two fold serial dilutions of peptides and antibiotics were determined using the same methodology as in the case of antimicrobial activity determination (Example 2). To consider the type of the final effect, FIC indexes (fractional inhibitory concentration) were used and calculated as follows:
(§2) [formula] where MICPC and MICAC are the MICs of the peptide and antibiotic in combination, respectively, and MICP and MICA are the MICs of the peptide and antibiotic tested alone, respectively. FIC<0.5 were considered as synergy, 0.5≤FIC≤2 as addition effect, and FIC>2 as antagonism.

[2] = tested on: Enterococcus faecalis Motol; details: BHI medium, 37° C., 20 h
Method: (§3) Gram-positive bacteria (Micrococcus luteus, Bacillus subtilis, Staphylococcus aureus, Staphylococcus epidermidis and Enterococcus faecalis), Gram-negative bacteria (Escherichia coli and Pseudomonas aeruginosa) and the yeast (Candida albicans) were grown to exponential phase and then were diluted with fresh medium. BHI medium (Oxoid, Great Britain) was used for Enterococcus faecalis; YPD medium containing yeast extract peptone and glucose was used for Candida albicans and LB medium (Sigma, Czech Republic) was used for the remaining microorganisms. Then the microorganisms were added to the solutions of the tested antimicrobial peptides in LB medium in multi-well plates. The final peptide concentration it the wells was in the range of 0.1 to 100 μmol.l^−1. That was made by twofold serial dilution from the peptide stock solution (1 mmol.l^−1). The plates were incubated at 37° C. for 20 h while being continuously shaken in a Bioscreen C (Oy Growth Curves AB Ltd., Helsinki, Finland). Absorbance was measured at 540 nm every 15 min. Antimicrobial activity (Table 2) was determined as a quantitative minimum inhibitory concentration (MIC) by observing bacterial growth in the presence of different concentrations of tested peptides. In the experiments ca 10^5 CFU of bacteria or candida per well were routinely used.
(§4) Multiresistant clinical isolates of bacteria were obtained from University Hospital in Motol, Prague, Czech Republic and from Liberec Regional Hospital, Czech Republic. Methicillin resistant Staphylococcus aureus (MRSA) 6271 and Pseudomonas aeruginosa 5482 were from the Czech National Collection of Type Cultures, the National Institute of Public Health, Prague, Czech Republic. Other bacteria were from the Czech Collection of Microorganisms, Brno, Czech Republic. Candida albicans came from the Faculty of Medicine, Palacky University, Olomouc, Czech Republic.

[3] = tested on: Pseudomonas aeruginosa 5482; details: 37° C., 20 h
Method: as §3, §4

[4] = tested on: Staphylococcus aureus Motol; details: Staphylococcus aureus Motol clinical isolate; 37° C., 20 h
Method: as §3, §4

[5] = tested on: Staphylococcus aureus Liberec; details: Staphylococcus aureus Liberec clinical isolate; 37° C., 20 h
Method: as §3, §4

[6] = tested on: Staphylococcus epidermidis Motol; details: 37° C., 20 h
Method: as §3, §4

[7] = tested on: Candida albicans Olomouc; details: Candida albicans Olomouc; YPD medium; 37° C., 20 h (Example 2)
Method: as §3, §4

[8] = tested on: Micrococcus luteus; details: Micrococcus luteus; 37° C., 20 h
Method: as §3, §4

[9] = tested on: Methicillin resistant Staphylococcus aureus (MRSA) 6271; details: 37° C., 20 h
Method: as §3, §4

[10] = tested on: Bacillus subtilis; details: Bacillus subtilis; 37° C., 20 h
Method: as §3, §4

[11] = tested on: Pseudomonas aeruginosa Liberec; details: Pseudomonas aeruginosa Liberec; 37° C., 20 h
Method: as §3, §4

[12] = tested on: Escherichia coli; details: 37° C., 20 h
Method: as §3, §4

[13] = tested on: Candida albicans (Olomouc); experiment: microbe, parasite or virus in culture; assay type: cell-based; details: RPMI broth microdilution, 35° C., 48 hours, visual
Method in brief: (§5)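 RPMI 1640/0.165 M MOPS microdilution; peptides 0.625–160 μmol.l^−1 as pipetted; final 5×10^2–2.5×10^3 CFU/ml; 35 °C, static, 48 h; visual MIC = no-growth endpoint.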

[14] = tested on: Candida glabrata ATCC 2001; experiment: microbe, parasite or virus in culture; assay type: cell-based; details: RPMI broth microdilution, 35° C., 48 hours, visual
Method in brief: as §5

[15] = tested on: Candida glabrata DSY 565; experiment: microbe, parasite or virus in culture; assay type: cell-based; details: RPMI broth microdilution, 35° C., 48 hours, visual
Method in brief: as §5

[16] = tested on: Candida dubliniensis ATCC MYA-646; experiment: microbe, parasite or virus in culture; assay type: cell-based; details: RPMI broth microdilution, 35° C., 48 hours, visual
Method in brief: as §5

[17] = tested on: Candida albicans ATCC MYA-2876; experiment: microbe, parasite or virus in culture; assay type: cell-based; details: RPMI broth microdilution, 35° C., 48 hours, visual
Method in brief: as §5

[18] = tested on: Candida tropicalis ATCC 750; experiment: microbe, parasite or virus in culture; assay type: cell-based; details: RPMI broth microdilution, 35° C., 48 hours, visual
Method in brief: as §5

[19] = tested on: Candida krusei ATCC 6258; experiment: microbe, parasite or virus in culture; assay type: cell-based; details: RPMI broth microdilution, 35° C., 48 hours, visual
Method in brief: as §5

[20] = in vitro; details: human
Method in brief: (§6)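 Hemolysis expressed as LC50, the concentration giving 50% erythrocyte lysis. Supernatant A540 was scaled between buffer-only blank and 0.2% Triton X100 total lysis after 1 h, 37 °C exposure of 5% v/v human red cells to 2-200 μmol.l^−1 peptide in physiological solution.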

[21] = tested on: S. aureus (Liberec); experiment: Synergistic effect of peptides with antibiotics, FIC index; assay type: cell-based, Staphylococcus aureus; details: peptide combined with amoxicillin; FIC <0.5 synergism, 0.5-2 additive, >2 antagonism; averages of three experiments
Method: as §1, §2

[22] = tested on: human red blood cells; experiment: in vitro; details: in words
Method in brief: as §6

| Substance | FIC indexes (fractional inhibitory concentration) Combination with RIF against P. aeruginosa [1] | FIC indexes (fractional inhibitory concentration) Combination with TET against P. aeruginosa [1] | Antimicrobial activity MIC E. f. Motol [2] | Antimicrobial activity MIC P. a. 5482 [3] | Antimicrobial activity MIC S. a. Motol [4] | Antimicrobial activity MIC S. a. Liberec [5] | Antimicrobial activity MIC S. e. Motol [6] | Antimicrobial activity MIC C. a. Olomouc [7] | Antimicrobial activity MIC M. l. [8] | Antimicrobial activity MIC S. a. 6271 [9] | Antimicrobial activity MIC B. s. [10] | Antimicrobial activity MIC P. a. Liberec [11] | Antimicrobial activity MIC E. c. [12] | Antifungal activity MIC C. albicans Olomouc [13] | Antifungal activity MIC C. glabrata ATCC 2001 [14] | Antifungal activity MIC C. glabrata DSY 565 [15] | Antifungal activity MIC C. dubliniensis ATCC MYA-646 [16] | Antifungal activity MIC C. albicans ATCC MYA-2876 [17] | Antifungal activity MIC C. tropicalis ATCC 750 [18] | Antifungal activity MIC C. krusei ATCC 6258 [19] | further results |
| --- | --- | --- | --- | --- | --- | --- | --- | --- | --- | --- | --- | --- | --- | --- | --- | --- | --- | --- | --- | --- | --- |
| H-GILSSWLKKLKKIIAK-NH2 [XV] | 0.396 | 0.646 | 73.3 µM | 4.0 µM | 16.2 µM | 6.6 µM | 2.0 µM | 16.7 µM | 1.6 µM | 16.0 µM | 1.6 µM | 5.9 µM | 11.0 µM | 21.0 µM | 40.0 µM | 88.9 µM | 22.0 µM | 17.0 µM | 1.2 µM | 8.0 µM | HC50 at 1 h [20]: > 400 µM; FIC indexes (fractional inhibitory concentration) Combination with AMX against S. aureus [21]: 0.375 |
| H-GIMSSLMKKLAAHIAK-NH2 [hylanine, reference compound] |  |  |  |  |  |  |  |  |  |  |  |  |  |  |  |  |  |  |  |  | toxicity against eukaryotic cells measured as hemolytic activity [22]: very low |
| H-GIMSSLMKKLKKIIKK-NH2 [VII] | 0.365 | 0.625 | >100 µM | 7.1 µM | 64.7 µM | 18.0 µM | 1.7 µM | 6.3 µM | 1.9 µM | 54.0 µM | 2.5 µM | 9.9 µM | 22.0 µM | 17.0 µM | 40.0 µM | 97.8 µM | 20.0 µM | 22.0 µM | 1.1 µM | 10.0 µM | HC50 at 1 h [20]: > 400 µM; FIC indexes (fractional inhibitory concentration) Combination with AMX against S. aureus [21]: 0.167 |
| H-GIWSSLLKKLKKIIAK-NH2 [XIV] | 0.271 | 0.354 | 46.0 µM | 6.3 µM | 5.3 µM | 4.6 µM | 1.5 µM | 16.0 µM | 0.8 µM | 20.0 µM | 0.8 µM | 21.0 µM | 1.6 µM | 8.2 µM | 19.1 µM | 48.0 µM | 9.0 µM | 10.0 µM | 1.2 µM | 5.2 µM | HC50 at 1 h [20]: 165 µM; FIC indexes (fractional inhibitory concentration) Combination with AMX against S. aureus [21]: 0.396 |
| H-KILSSLLKKLKKIIAK-NH2 [VI] | 0.260 | 0.708 | 32.5 µM | 5.0 µM | 10.0 µM | 5.5 µM | 1.4 µM | 25.3 µM | 1.0 µM | 32.0 µM | 1.3 µM | 16.0 µM | 16.0 µM | 12.0 µM | 28.0 µM | 71.1 µM | 12.0 µM | 20.0 µM | 0.9 µM | 4.8 µM | HC50 at 1 h [20]: 364 µM; FIC indexes (fractional inhibitory concentration) Combination with AMX against S. aureus [21]: 0.292 |
